Test results from ChEMBL document CHEMBL1201861, “Genomics of Drug Sensitity in Cancer screening data, Wellcome Trust Sanger Institute”.

Legend:
Assay in all cases: cells
[1] = tested on: SK-UT-1; type: functional, cell-based, Homo sapiens; conditions: Homo sapiens, SK-UT-1;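 also: growth inhibition of SK-UT-1 cells, measured by a cell viability assay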
Description: SANGER: Inhibition of human SK-UT-1 cell growth in a cell viability assay.

[2] = tested on: LS-123; type: functional, cell-based, Homo sapiens; conditions: Homo sapiens, LS-123
Description: SANGER: Inhibition of human LS-123 cell growth in a cell viability assay.

[3] = tested on: GAK; type: functional, cell-based, Homo sapiens; conditions: Homo sapiens, GAK;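 also: cell growth inhibition read out by a cell viability assay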
Description: SANGER: Inhibition of human GAK cell growth in a cell viability assay.

[4] = tested on: NB17; type: functional, cell-based, Homo sapiens; conditions: Homo sapiens, NB17;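 also: growth inhibition of NB17 cells, read out with a cell viability assay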
Description: SANGER: Inhibition of human NB17 cell growth in a cell viability assay.

[5] = tested on: LAMA-84; type: functional, cell-based, Homo sapiens; conditions: Homo sapiens, LAMA-84;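 also: growth inhibition of LAMA-84 cells, read out with a cell viability assay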
Description: SANGER: Inhibition of human LAMA-84 cell growth in a cell viability assay.

[6] = tested on: HCC 2998; type: functional, cell-based, Homo sapiens; conditions: Homo sapiens, HCC 2998;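 also: growth inhibition of human HCC2998 cells, measured with a cell viability read-out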
Description: SANGER: Inhibition of human HCC2998 cell growth in a cell viability assay.

[7] = tested on: CW-2; type: functional, cell-based, Homo sapiens; conditions: Homo sapiens, CW-2;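 also: growth inhibition of CW-2 cells, read out by a cell viability assay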
Description: SANGER: Inhibition of human CW-2 cell growth in a cell viability assay.

[8] = tested on: ONS-76; type: functional, cell-based, Homo sapiens; conditions: Homo sapiens, ONS-76;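 also: growth inhibition of human ONS-76 cells, read out with a cell viability assay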
Description: SANGER: Inhibition of human ONS-76 cell growth in a cell viability assay.

[9] = tested on: TGBC1TKB; type: functional, cell-based, Homo sapiens; conditions: Homo sapiens, TGBC1TKB;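 also: growth inhibition of TGBC1TKB cells, read out by a cell viability assay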
Description: SANGER: Inhibition of human TGBC1TKB cell growth in a cell viability assay.

[10] = tested on: TGW; type: functional, cell-based, Homo sapiens; conditions: Homo sapiens, TGW;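 also: growth inhibition of human TGW cells, read out with a cell viability assay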
Description: SANGER: Inhibition of human TGW cell growth in a cell viability assay.

[11] = tested on: OCUB-M; type: functional, cell-based, Homo sapiens; conditions: Homo sapiens, OCUB-M;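 also: growth inhibition of the cancer cell line, read out through a cell viability assay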
Description: SANGER: Inhibition of human OCUB-M cell growth in a cell viability assay.

[12] = tested on: SBC-1; type: functional, cell-based, Homo sapiens; conditions: Homo sapiens, SBC-1;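 also: cell viability assay measuring growth inhibition of the SBC-1 cell line, IC50 being the concentration that halves growth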
Description: SANGER: Inhibition of human SBC-1 cell growth in a cell viability assay.

[13] = tested on: KM12; type: functional, cell-based, Homo sapiens; conditions: Homo sapiens, KM12;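 also: KM12 cell growth inhibition, read out with a cell viability assay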
Description: SANGER: Inhibition of human KM12 cell growth in a cell viability assay.

[14] = tested on: ES3; type: functional, cell-based, Homo sapiens; conditions: Homo sapiens, ES3;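 also: growth inhibition of ES3 cells, read out with a cell viability assay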
Description: SANGER: Inhibition of human ES3 cell growth in a cell viability assay.

[15] = tested on: EW-13; type: functional, cell-based, Homo sapiens; conditions: Homo sapiens, EW-13;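 also: growth inhibition of EW-13 cells, read out with a cell viability assay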
Description: SANGER: Inhibition of human EW-13 cell growth in a cell viability assay.

[16] = tested on: KMOE-2; type: functional, cell-based, Homo sapiens; conditions: Homo sapiens, KMOE-2;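 also: growth inhibition of human KMOE-2 cells, read out with a cell viability assay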
Description: SANGER: Inhibition of human KMOE-2 cell growth in a cell viability assay.

[17] = tested on: QIMR-WIL; type: functional, cell-based, Homo sapiens; conditions: Homo sapiens, QIMR-WIL;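 also: growth inhibition of QIMR-WIL cells, read out with a cell viability assay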
Description: SANGER: Inhibition of human QIMR-WIL cell growth in a cell viability assay.

[18] = tested on: K562; type: functional, cell-based, Homo sapiens; conditions: Homo sapiens, K562
Description: SANGER: Inhibition of human K-562 cell growth in a cell viability assay.

[19] = tested on: SK-MEL-2; type: functional, cell-based, Homo sapiens; conditions: Homo sapiens, SK-MEL-2;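 also: growth inhibition of human SK-MEL-2 cells measured with a cell viability assay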
Description: SANGER: Inhibition of human SK-MEL-2 cell growth in a cell viability assay.

[20] = tested on: DSH1; type: functional, cell-based, Homo sapiens; conditions: Homo sapiens, DSH1;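 also: growth inhibition of human DSH1 cells, measured with a cell viability readout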
Description: SANGER: Inhibition of human DSH1 cell growth in a cell viability assay.

[21] = tested on: KURAMOCHI; type: functional, cell-based, Homo sapiens; conditions: Homo sapiens, KURAMOCHI;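 also: growth inhibition of KURAMOCHI cells, read out with a cell viability assay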
Description: SANGER: Inhibition of human KURAMOCHI cell growth in a cell viability assay.

[22] = tested on: KU812 cell line; type: functional, cell-based, Homo sapiens; conditions: Homo sapiens, KU812;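 also: growth inhibition of KU812 cells, read out with a cell viability assay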
Description: SANGER: Inhibition of human KU812 cell growth in a cell viability assay.

[23] = tested on: MFM-223; type: functional, cell-based, Homo sapiens; conditions: Homo sapiens, MFM-223
Description: SANGER: Inhibition of human MFM-223 cell growth in a cell viability assay.

[24] = tested on: LS-513; type: functional, cell-based, Homo sapiens; conditions: Homo sapiens, LS-513
Description: SANGER: Inhibition of human LS-513 cell growth in a cell viability assay.

[25] = tested on: OS-RC-2; type: functional, cell-based, Homo sapiens; conditions: Homo sapiens, OS-RC-2;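 also: growth inhibition of human OS-RC-2 cells, measured by a cell viability assay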
Description: SANGER: Inhibition of human OS-RC-2 cell growth in a cell viability assay.

[26] = tested on: DMS-79; type: functional, cell-based, Homo sapiens; conditions: Homo sapiens, DMS-79;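 also: growth inhibition measured with a cell viability assay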
Description: SANGER: Inhibition of human DMS-79 cell growth in a cell viability assay.

[27] = tested on: P30-OHK; type: functional, cell-based, Homo sapiens; conditions: Homo sapiens, P30-OHK;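 also: growth inhibition of the P30-OHK cell line, read out with a cell viability assay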
Description: SANGER: Inhibition of human P30-OHK cell growth in a cell viability assay.

[28] = tested on: COLO-668; type: functional, cell-based, Homo sapiens; conditions: Homo sapiens, COLO-668
Description: SANGER: Inhibition of human COLO-668 cell growth in a cell viability assay.

[29] = tested on: JAR; type: functional, cell-based, Homo sapiens; conditions: Homo sapiens, JAR;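 also: growth inhibition of human JAR cells determined with a cell viability assay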
Description: SANGER: Inhibition of human JAR cell growth in a cell viability assay.

[30] = tested on: NCI-H1092; type: functional, cell-based, Homo sapiens; conditions: Homo sapiens, NCI-H1092;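 also: cell growth inhibition measured with a cell viability assay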
Description: SANGER: Inhibition of human NCI-H1092 cell growth in a cell viability assay.

[31] = tested on: CTB-1; type: functional, cell-based, Homo sapiens; conditions: Homo sapiens, CTB-1
Description: SANGER: Inhibition of human CTB-1 cell growth in a cell viability assay.

[32] = tested on: MS-1; type: functional, cell-based, Homo sapiens; conditions: Homo sapiens, MS-1;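 also: growth inhibition of MS-1 cells, read out by cell viability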
Description: SANGER: Inhibition of human MS-1 cell growth in a cell viability assay.

[33] = tested on: NCI-H69; type: functional, cell-based, Homo sapiens; conditions: Homo sapiens, NCI-H69;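 also: growth inhibition of the cell line, read out with a cell viability assay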
Description: SANGER: Inhibition of human NCI-H69 cell growth in a cell viability assay.

[34] = tested on: CGTH-W-1; type: functional, cell-based, Homo sapiens; conditions: Homo sapiens, CGTH-W-1;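 also: growth inhibition of human CGTH-W-1 cells measured by cell viability assay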
Description: SANGER: Inhibition of human CGTH-W-1 cell growth in a cell viability assay.

[35] = tested on: HL-60; type: functional, cell-based, Homo sapiens; conditions: Homo sapiens, HL-60;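 also: growth inhibition of human HL-60 cells, read out with a cell viability assay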
Description: SANGER: Inhibition of human HL-60 cell growth in a cell viability assay.

[36] = tested on: MLMA; type: functional, cell-based, Homo sapiens; conditions: Homo sapiens, MLMA;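 also: growth inhibition of MLMA cells (human), determined through a cell viability readout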
Description: SANGER: Inhibition of human MLMA cell growth in a cell viability assay.

[37] = tested on: HAL-01; type: functional, cell-based, Homo sapiens; conditions: Homo sapiens, HAL-01;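 also: growth inhibition of human HAL-01 cells, read out with a cell viability assay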
Description: SANGER: Inhibition of human HAL-01 cell growth in a cell viability assay.

[38] = tested on: HD-MY-Z; type: functional, cell-based, Homo sapiens; conditions: Homo sapiens, HD-MY-Z;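 also: growth inhibition of HD-MY-Z cells, read out with a cell viability assay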
Description: SANGER: Inhibition of human HD-MY-Z cell growth in a cell viability assay.

[39] = tested on: 8-MG-BA; type: functional, cell-based, Homo sapiens; conditions: Homo sapiens, 8-MG-BA;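 also: growth inhibition of 8-MG-BA cells, read out with a cell viability assay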
Description: SANGER: Inhibition of human 8-MG-BA cell growth in a cell viability assay.

[40] = tested on: MC116; type: functional, cell-based, Homo sapiens; conditions: Homo sapiens, MC116;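 also: growth inhibition of MC116 cells, read out with a cell viability assay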
Description: SANGER: Inhibition of human MC116 cell growth in a cell viability assay.

[41] = tested on: LC-2-ad; type: functional, cell-based, Homo sapiens; conditions: Homo sapiens, LC-2-ad;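 also: growth inhibition of human LC-2-ad cells, read out with a cell viability assay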
Description: SANGER: Inhibition of human LC-2-ad cell growth in a cell viability assay.

[42] = tested on: NH-12; type: functional, cell-based, Homo sapiens; conditions: Homo sapiens, NH-12;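 also: growth inhibition of NH-12 cells, read out with a cell viability assay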
Description: SANGER: Inhibition of human NH-12 cell growth in a cell viability assay.

[43] = tested on: HH; type: functional, cell-based, Homo sapiens; conditions: Homo sapiens, HH
Description: SANGER: Inhibition of human HH cell growth in a cell viability assay.

[44] = tested on: U-87 MG; type: functional, cell-based, Homo sapiens, U-87MG ATCC; conditions: Homo sapiens, U-87 MG;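 also: growth inhibition of the cells measured with a viability assay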
Description: SANGER: Inhibition of human U-87-MG cell growth in a cell viability assay.

[45] = tested on: A388; type: functional, cell-based, Homo sapiens; conditions: Homo sapiens, A388;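 also: growth inhibition of human A388 cells, read out with a cell viability assay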
Description: SANGER: Inhibition of human A388 cell growth in a cell viability assay.

[46] = tested on: EW-11; type: functional, cell-based, Homo sapiens; conditions: Homo sapiens, EW-11;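 also: growth inhibition of human EW-11 cells, measured with a cell viability assay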
Description: SANGER: Inhibition of human EW-11 cell growth in a cell viability assay.

[47] = tested on: COR-L88; type: functional, cell-based, Homo sapiens; conditions: Homo sapiens, COR-L88;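 also: growth inhibition of COR-L88 cells, read out with a cell viability assay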
Description: SANGER: Inhibition of human COR-L88 cell growth in a cell viability assay.

COc1cc(N2CCN(C)CC2)ccc1Nc1ncc2c(n1)N(C)c1ccccc1C(=O)N2C
IC50 [1]: > 8 µM | IC50 [2]: > 8 µM | IC50 [3]: > 8 µM | IC50 [4]: > 8 µM | IC50 [5]: > 8 µM | IC50 [6]: > 8 µM | IC50 [7]: > 8 µM | IC50 [8]: > 8 µM | IC50 [9]: > 8 µM | IC50 [10]: > 8 µM | IC50 [11]: > 8 µM | IC50 [12]: > 8 µM | IC50 [13]: > 8 µM | IC50 [14]: > 8 µM | IC50 [15]: > 8 µM | IC50 [16]: > 8 µM | IC50 [17]: 6.32 µM | IC50 [18]: > 8 µM | IC50 [19]: > 8 µM | IC50 [20]: > 8 µM | IC50 [21]: > 8 µM | IC50 [22]: 7.43 µM | IC50 [23]: > 8 µM | IC50 [24]: 5.86 µM | IC50 [25]: > 8 µM | IC50 [26]: > 8 µM | IC50 [27]: > 8 µM | IC50 [28]: > 8 µM | IC50 [29]: > 8 µM | IC50 [30]: > 8 µM | IC50 [31]: 7.52 µM | IC50 [32]: 4.67 µM | IC50 [33]: > 8 µM | IC50 [34]: > 8 µM | IC50 [35]: 5.14 µM | IC50 [36]: > 8 µM | IC50 [37]: 2.12 µM | IC50 [38]: > 8 µM | IC50 [39]: > 8 µM | IC50 [40]: 7.22 µM | IC50 [41]: > 8 µM | IC50 [42]: > 8 µM | IC50 [43]: 4.58 µM | IC50 [44]: > 8 µM | IC50 [45]: 6.57 µM | IC50 [46]: > 8 µM | IC50 [47]: > 8 µM
